Measured values from patent publication US8697661B2, “Use of spinosyns and spinosyn compositions against herpesviridae viral infections” (priority 2009, dated 2014).
Where two headings read alike, the source gives them in different places.

Columns and labels:
[1] = system: Respiratory Syncytial Virus Strain A2-RSV; type: cell-based; conditions: 9.5 μg/ml spinosad, virus load of 50-100 infectious units, HEp2 cells
[2] = system: BxPC-3 Human pancreatic adenocarcinoma; conditions: for Cell Survival (% of Control; mean ± S.D.): 24-hour exposure, 24 h post end of exposure
[3] = system: MDA-MB-231 Human breast adenocarcinoma cells; assay: Cell proliferation assay, MDA-MB-231; conditions: for Cell Number Doubling Time: 24 hours of exposure (control 3.11)
Description: Cell Proliferation assay: for each cell line, cell suspensions ranging in concentration of approximately 2-5×10^5 cells/mL of growth medium were prepared. 1 mL of each of these suspensions was aseptically transferred to a sterile tissue culture flask (12.5 or 25 cm^2) containing fresh growth medium. Three flasks (triplicate) were used for each group, and for each time point of viable cell number/mL measurement at 1, 3 and 5 days post-treatment (9 dishes per group in total). The cells were incubated and allowed to adhere to the bottom of the flasks and proliferate.
After approximately 24 hours of exposure to treatments, dosing media was replaced with fresh growth media and cells were returned to the incubator and allowed to proliferate.
Assessment of Cell Proliferation: For each cell line, measurement of viable cell number/mL was performed as already described above. This measurement was performed in triplicate from three flasks per group, at 1, 3 and 5 days post-removal of treatment.

[4] = system: Herpes Simplex Virus type 1, McIntyre (HSV1); assay: Viral Plaque Reduction Assay / inhibition of infection assay, HSV1 in Vero cells; type: cell-based; conditions: 10 μg/ml spinosad
[5] = BxPC-3, 24 h post end of 24-hour exposure

## Spinosad
[1]
  inhibition of virus: no inhibition
[2]; [5]
  Calculated LC50: 11.1 µg/mL
  Calculated LC100: 31.6 µg/mL
[2]; BxPC-3, spinosad 10 μg/mL
  Cell Survival (% of Control; mean ± S.D.): 54.1 ± 9.8 % of Control
[2]; BxPC-3, spinosad 20 μg/mL
  Cell Survival (% of Control; mean ± S.D.): 25.5 ± 2.6 % of Control
[2]; BxPC-3, spinosad 30 μg/mL
  Cell Survival (% of Control; mean ± S.D.): 5.3 ± 2.6 % of Control
[3]; MDA-MB-231, spinosad 5 μg/mL
  Cell Number Doubling Time: 3.99 days
[3]; MDA-MB-231, spinosad 10 μg/mL
  Cell Number Doubling Time: 5.09 days
[3]; MDA-MB-231, spinosad 15 μg/mL
  Cell Number Doubling Time: 7.13 days
[3]; high dose level 15 μg/mL, MDA-MB-231
  cell number doubling time from 3 days post-treatment increased by: approximately 129.3%
[4]
  inhibition of approximately 20 infectious units of the HSV1 virus: 100%
[4]; more than approximately 20 infectious units
  inhibition of higher virus loads: not inhibited
